Structures can show the parent of a compound that is named as a salt.
Target: T1, human β3 adrenergic receptor (Homo sapiens, UniProt P13945)
T1 construct: expressed in transfected cells; host or cells: Chinese hamster ovary (CHO) cells, stably transfected
Assay: Functional Assay: cAMP production in CHO cells stably transfected with cloned β3-adrenergic receptor (LANCE)
Type: cell-based
Details: CHO cells expressing β3 receptor, range classes, read-out: Human β3 EC50
Protocol: Functional Assay: cAMP production in response to ligand is measured according to Barton et al (1991, Agonist-induced desensitization of D2 dopamine receptors in human Y-79 retinoblastoma cells. Mol. Pharmacol. […]) modified as follows. cAMP production is measured using a homogenous time-resolved fluorescence resonance energy transfer immunoassay (LANCE™, Perkin Elmer) according to the manufacture's instructions. Chinese hamster ovary (CHO) cells, stably transfected with the cloned β-adrenergic receptor (β1, β2 or β3) are harvested after 3 days of subculturing. Harvesting of cells is done with Enzyme-free Dissociation Media (Specialty Media). Cells are then counted and resuspended in assay buffer (Hank's Balanced salt solution supplemented with 5 mM HEPES, 0.1% BSA) containing a phosphodiesterase inhibitor (IBMX, 0.6 mM). The reaction is initiated by mixing 6,000 cells in 6 μL with 6 μL Alexa Fluor labeled cAMP antibody (LANCE™ kit) which is then added to an assay well containing 12 ul of compound (diluted in assay buffer to 2× final concentration). The reaction proceeds for 30 minutes at room temperature and is terminated by the addition of 24 μL detection buffer (LANCE™ kit). The assay plate is then incubated for 1 hour at room temperature and time-resolved fluorescence measured on a Perkin Elmer Envision reader or equivalent. The unknown cAMP level is determined by comparing fluorescence levels to a cAMP standard curve.
The non-selective, full agonist β-adrenergic ligand isoproterenol is used at all three receptors to determine maximal stimulation. The human β3 adrenergic receptor (AR) selective ligand (S)—N-[4-[2-[[2-hydroxy-3-(4-hydroxyphenoxy)propyl]amino]ethyl]-phenyl]-4-iodobenzenesulfonamide is used as a control in all assays. Isoproterenol is titrated at a final concentration in the assay of 10^−10 M to 10^−5 M and the selective ligand (S)—N-[4-[2-[[2-hydroxy-3-(4-hydroxyphenoxy)propyl]amino]ethyl]phenyl]-4-iodobenzenesulfonamide is titrated at the β3 receptor at concentration of 10^−10 M to 10^−5 M. Unknown ligands are titrated at all 3β-adrenergic receptor subtypes at a final concentration in the assay of 10^−10 M to 10^−5 M to determine the EC50. The EC50 is defined as the concentration of compound that gives 50% activation of its own maximum. Data are analyzed using Microsoft Excel and Graphpad Prism or an internally developed data analysis software package.

T1 sequence (P13945 whole entry): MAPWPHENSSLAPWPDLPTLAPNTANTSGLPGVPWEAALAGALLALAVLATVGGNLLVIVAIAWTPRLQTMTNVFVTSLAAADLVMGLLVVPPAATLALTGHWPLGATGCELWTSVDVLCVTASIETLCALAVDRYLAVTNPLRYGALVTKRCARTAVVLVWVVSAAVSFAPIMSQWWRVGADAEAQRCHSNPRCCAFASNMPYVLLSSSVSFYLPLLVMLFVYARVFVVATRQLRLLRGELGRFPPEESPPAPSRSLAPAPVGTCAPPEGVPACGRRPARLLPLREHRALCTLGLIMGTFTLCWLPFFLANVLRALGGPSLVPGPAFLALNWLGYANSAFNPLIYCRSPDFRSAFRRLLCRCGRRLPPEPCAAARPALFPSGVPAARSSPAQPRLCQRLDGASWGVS

Row | Structure (SMILES) | EC50
1 | Cc1csc(CC(=O)Nc2ccc(C[C@@H]3CC[C@H]([C@H](O)COc4ccccc4)N3)cc2)n1 [Example 3] | 1 to 10 nM
2 | Cc1nc(CC(=O)Nc2ccc(C[C@@H]3CC[C@H]([C@H](O)COc4ccccc4)N3)cc2)c(C)s1 [Example 5] | 1 to 10 nM
3 | O=C(Cc1nnc(-c2ccccc2)[nH]1)Nc1ccc(C[C@@H]2CC[C@H]([C@H](O)COc3ccccc3)N2)cc1 [Example 6] | < 1 nM

Same assay, conditions: CHO cells expressing β3 receptor, read-out: human β3 functional activity (EC50)

Row | Structure (SMILES) | EC50
4 | Nc1nc(CC(=O)Nc2ccc(C[C@@H]3CC[C@H]([C@H](O)COc4ccccc4)N3)cc2)cs1 [Example 1, 2-(2-Amino-1,3-thiazol-4-yl)-N-[4-({(2S,5R)-5-[(1S)-1-hydroxy-2-phenoxyethyl]pyrrolidin-2-yl}methyl)phenyl]acetamide bis-trifluoroacetate salt] | < 1 nM
5 | Nc1nc(CC(=O)Nc2ccc(C[C@H]3CC[C@H]([C@H](O)COc4ccccc4)N3)cc2)cs1 [Example 11, 2-(2-Amino-1,3-thiazol-4-yl)-N-[4-({(2R,5R)-5-[(1S)-1-hydroxy-2-phenoxyethyl]pyrrolidin-2-yl}methyl)phenyl]acetamide bis trifluoroacetate salt] | 100 to 1000 nM
6 | O=S(=O)(Nc1ccc(C[C@@H]2CC[C@H]([C@H](O)COc3ccccc3)N2)cc1)c1ccc(-c2nc(-c3ccc(C(F)(F)F)cc3)cs2)cc1 [Example 12, N-[4-({(2S,5R)-5-[(1S)-1-Hydroxy-2-phenoxyethyl]pyrrolidin-2-yl}methyl)phenyl]-4-{4-[4-(trifluoromethyl)phenyl]-1,3-thiazol-2-yl}benzenesulfonamide trifluoroacetate salt] | < 10 nM
7 | O=S(=O)(Nc1ccc(C[C@@H]2CC[C@H]([C@H](O)COc3ccccc3)N2)cc1)c1ccc(I)cc1 [Example 13] | < 10 nM
8 | CCCCCCNC(=O)Nc1ccc(S(=O)(=O)Nc2ccc(C[C@@H]3CC[C@H]([C@H](O)COc4ccccc4)N3)cc2)cc1 [Example 14, 4-{[(Hexylamino)carbonyl]amino}-N-[4-({(2S,5R)-5-[(1S)-1-hydroxy-2-phenoxyethyl]pyrrolidin-2-yl}methyl)phenyl]benzenesulfonamide trifluoroacetate salt] | < 1 nM
9 | Nc1ncn(CC(=O)Nc2ccc(C[C@@H]3CC[C@H]([C@H](O)COc4ccccc4)N3)cc2)n1 [Example 15, 2-(3-Amino-1H-1,2,4-triazol-1-yl)-N-[4-({(2S,5R)-5-[(1S)-1-hydroxy-2-phenoxyethyl]pyrrolidin-2-yl}methyl)phenyl]acetamide trifluoroacetate salt] | < 1 nM

From US8618144B2, “Pyrrolidine-derived beta 3 adrenergic receptor agonists” (Merck Sharp & Dohme Corp, priority 2009, dated 2013)
